Test results from PubChem BioAssay AID330 (DTP/NCI, 2004).
Several values for one entry are separate records, joined by “and”; a condition that tells them apart may be missing. Equal entries are not always repeated. Inconclusive results and toxic doses are left out. Rule for the calls: active = survival T/C of 150% or more; inactive = T/C below 125% in these data.

Test system: P388 leukemia ip, CD2F1 mice, survival T/C
Assay: NCI In Vivo Anticancer Drug Screen. Data for tumor model P388 Leukemia (intraperitoneal) in CD2F1 (CDF1) mice
Settings: endpoint: median survival time, higher = longer survival
Method in brief: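 Mice carrying the transplanted tumor received test compound or vehicle. Survival was recorded in each group, and the value is the treated-group measurement divided by that of the vehicle-treated control group.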

[1] = dose: 50.0 mg/kg/injection, schedule: Q01DX009 (ip), vehicle: Klucel (hydroxypropylcellulose) (HPC)
[2] = dose: 50.0 mg/kg/injection, schedule: Q01DX009 (ip), vehicle: saline with Tween-80
[3] = dose: 100.0 mg/kg/injection, schedule: Q01DX009 (ip), vehicle: saline with Tween-80
[4] = dose: 200.0 mg/kg/injection, schedule: Q01DX009 (ip), vehicle: saline with Tween-80
[5] = dose: 50.0 mg/kg/injection, schedule: Q01DX005 (ip), vehicle: saline with Tween-80
[6] = dose: 100.0 mg/kg/injection, schedule: Q01DX005 (ip), vehicle: saline with Tween-80
[7] = dose: 200.0 mg/kg/injection, schedule: Q01DX005 (ip), vehicle: saline with Tween-80
[8] = dose: 25.0 mg/kg/injection, schedule: Q01DX005 (ip), vehicle: saline
[9] = dose: 50.0 mg/kg/injection, schedule: Q01DX005 (ip), vehicle: saline
[10] = dose: 100.0 mg/kg/injection, schedule: Q01DX005 (ip), vehicle: saline
[11] = dose: 50.0 mg/kg/injection, schedule: Q01DX005 (ip), vehicle: Klucel (hydroxypropylcellulose) (HPC)
[12] = dose: 100.0 mg/kg/injection, schedule: Q01DX005 (ip), vehicle: Klucel (hydroxypropylcellulose) (HPC)
[13] = dose: 200.0 mg/kg/injection, schedule: Q01DX005 (ip), vehicle: Klucel (hydroxypropylcellulose) (HPC)

Measured: T/C

NC(=O)c1[nH]nc(C2OC(CO)C(O)C2O)c1O (configuration not stated)
inactive: dose: 0.31 mg/kg/injection, schedule: Q01DX009 (ip), vehicle: saline 109 % of control | dose: 0.62 mg/kg/injection, schedule: Q01DX009 (ip), vehicle: saline 122 % of control | dose: 0.67 mg/kg/injection, schedule: Q01DX009 (ip), vehicle: saline 124 % of control | dose: 1.0 mg/kg/injection, schedule: Q04DX003 (ip), vehicle: saline 108 % of control | dose: 2.0 mg/kg/injection, schedule: Q04DX003 (ip), vehicle: saline 113 % of control | dose: 3.0 mg/kg/injection, schedule: Q01DX009 (ip), vehicle: saline 107 % of control | dose: 3.0 mg/kg/injection, schedule: Q04DX003 (ip), vehicle: saline 113 % of control | dose: 4.0 mg/kg/injection, schedule: Q04DX003 (ip), vehicle: saline 120 % of control | dose: 4.4 mg/kg/injection, schedule: Q04DX003 (ip), vehicle: saline 115 % of control | dose: 6.7 mg/kg/injection, schedule: Q04DX003 (ip), vehicle: saline 115 % of control | dose: 8.0 mg/kg/injection, schedule: Q04DX003 (ip), vehicle: saline 111 % of control | dose: 9.0 mg/kg/injection, schedule: Q04DX003 (ip), vehicle: saline 123 % of control | dose: 10.0 mg/kg/injection, schedule: Q04DX003 (ip), vehicle: saline sonified 116 % of control | dose: 10.0 mg/kg/injection, schedule: Q04DX003 (ip), vehicle: saline 106 % of control | dose: 16.0 mg/kg/injection, schedule: Q04DX003 (ip), vehicle: saline 111 % of control | dose: 27.0 mg/kg/injection, schedule: Q04DX003 (ip), vehicle: saline 117 % of control | dose: 32.0 mg/kg/injection, schedule: Q04DX003 (ip), vehicle: saline 104 % of control

O=S1(=O)CCN(C2CC2)CC1
inactive: dose: 12.5 mg/kg/injection, schedule: Q01DX009 (ip), vehicle: Klucel (hydroxypropylcellulose) (HPC) 98 % of control | dose: 25.0 mg/kg/injection, schedule: Q01DX009 (ip), vehicle: Klucel (hydroxypropylcellulose) (HPC) 100 % of control | [1] 111 % of control

O=C1Nc2ccccc2C(=O)C1(Cc1ccccc1)C(=O)c1ccccc1 (configuration not stated)
inactive: dose: 60.0 mg/kg/injection, schedule: Q01DX005 (ip), vehicle: Klucel (hydroxypropylcellulose) (HPC) 99 % of control | dose: 120.0 mg/kg/injection, schedule: Q01DX005 (ip), vehicle: Klucel (hydroxypropylcellulose) (HPC) 105 % of control | dose: 240.0 mg/kg/injection, schedule: Q01DX005 (ip), vehicle: Klucel (hydroxypropylcellulose) (HPC) 97 % of control

CCOc1c(N=Nc2ccccc2[N+](=O)[O-])c(C)nn1C(=S)S
inactive: dose: 60.0 mg/kg/injection, schedule: Q01DX005 (ip), vehicle: Klucel + Tween-80 103 % of control | dose: 120.0 mg/kg/injection, schedule: Q01DX005 (ip), vehicle: Klucel + Tween-80 97 % of control | dose: 240.0 mg/kg/injection, schedule: Q01DX005 (ip), vehicle: Klucel + Tween-80 92 % of control

CCN(CC)CC.[CH-]1CCCCC1.[CH-]1CCCCC1.[CH-]1CCCCC1.[Cl-].[Cl-].[Sn+4]
inactive: dose: 3.12 mg/kg/injection, schedule: Q01DX005 (ip), vehicle: saline with Tween-80 107 % of control | dose: 6.25 mg/kg/injection, schedule: Q01DX005 (ip), vehicle: saline with Tween-80 110 % of control

O=c1[nH]c(O)c(N=Nc2ccc([N+](=O)[O-])cc2[N+](=O)[O-])c(=O)[nH]1
inactive: dose: 25.0 mg/kg/injection, schedule: Q01DX009 (ip), vehicle: saline with Tween-80 113 % of control | [2] 102 % of control (2×) and 114 % of control | [3] 103 % of control and 112 % of control | [4] 102 % of control and 111 % of control

Cn1nnnc1SCC1=C(C(=O)O)N2C(=O)C(NC(=O)C(OC=O)c3ccccc3)C2SC1 (configuration not stated)
inactive: dose: 50.0 mg/kg/injection, schedule: Q01DX009 (ip), vehicle: saline 100 % of control | dose: 100.0 mg/kg/injection, schedule: Q01DX009 (ip), vehicle: saline 97 % of control | dose: 200.0 mg/kg/injection, schedule: Q01DX009 (ip), vehicle: saline 104 % of control

O=C1N(Cc2ccccc2)[C@H]2CS(=O)(=O)C[C@@H]2N1Cc1ccccc1
inactive: [5] 87 % of control | [6] 92 % of control | [7] 86 % of control

CN(C)/C(=N\O)c1ccccc1
inactive: dose: 3.12 mg/kg/injection, schedule: Q04DX003 (ip), vehicle: saline 100 % of control and 105 % of control | dose: 6.25 mg/kg/injection, schedule: Q04DX003 (ip), vehicle: saline 100 % of control and 90 % of control | dose: 12.5 mg/kg/injection, schedule: Q04DX003 (ip), vehicle: saline 100 % of control and 95 % of control

O=C1c2ccccc2C2N1CCC1CCc3ccccc3N12 (configuration not stated)
inactive: [2] 92 % of control | [3] 91 % of control | [4] 89 % of control

O=C1C[C@@H](c2ccccc2)NCCCCN(O)CCCN1
inactive: [8] 106 % of control | [9] 97 % of control | [10] 100 % of control

CN1CCCc2c1n(-c1ccccc1)c(=O)n(-c1ccccc1)c2=O
inactive: [11] 100 % of control | [12] 101 % of control | [13] 99 % of control

CCOC(=O)CN=NNc1ccc([N+](=O)[O-])cc1
inactive: dose: 100.0 mg/kg/injection, schedule: Q01DX001 (ip), vehicle: Klucel (hydroxypropylcellulose) (HPC) 106 % of control | dose: 200.0 mg/kg/injection, schedule: Q01DX001 (ip), vehicle: Klucel (hydroxypropylcellulose) (HPC) 109 % of control | dose: 400.0 mg/kg/injection, schedule: Q01DX001 (ip), vehicle: Klucel (hydroxypropylcellulose) (HPC) 109 % of control

CC(=O)Oc1cc2c(c3ccccc13)OC(=O)CCCCCCCCCCC2=O
inactive: dose: 100.0 mg/kg/injection, schedule: Q04DX002 (ip), vehicle: Klucel (hydroxypropylcellulose) (HPC) 93 % of control | dose: 200.0 mg/kg/injection, schedule: Q04DX002 (ip), vehicle: Klucel (hydroxypropylcellulose) (HPC) 118 % of control | dose: 400.0 mg/kg/injection, schedule: Q04DX002 (ip), vehicle: Klucel (hydroxypropylcellulose) (HPC) 107 % of control

Nc1nc(N)c2[nH]c(N=Nc3ccc(N(CCO)CCO)cc3)nc2n1
inactive: [5] 106 % of control | [6] 106 % of control | [7] 108 % of control

CC1CCCC(C)N1C(=O)OCC12COC3(C)CCC(C)(OC1)N23 (configuration not stated)
inactive: [8] 100 % of control | [11] 95 % of control | [9] 99 % of control and 100 % of control | [12] 109 % of control | [10] 104 % of control and 108 % of control | [13] 109 % of control | dose: 200.0 mg/kg/injection, schedule: Q01DX005 (ip), vehicle: saline 122 % of control and 96 % of control

Nc1c(Cl)cc(Cl)c(-c2c(Cl)cc(Cl)c([N+](=O)[O-])c2Cl)c1Cl
inactive: [1] 103 % of control | dose: 100.0 mg/kg/injection, schedule: Q01DX009 (ip), vehicle: Klucel (hydroxypropylcellulose) (HPC) 93 % of control | dose: 200.0 mg/kg/injection, schedule: Q01DX009 (ip), vehicle: Klucel (hydroxypropylcellulose) (HPC) 100 % of control

O=C(O)c1ccccc1C(=O)O.[Cu+2].[NH-]CC[NH-]
inactive: dose: 1.25 mg/kg/injection, schedule: Q04DX002 (ip), vehicle: saline with Tween-80 100 % of control | dose: 2.5 mg/kg/injection, schedule: Q04DX002 (ip), vehicle: saline with Tween-80 99 % of control | dose: 5.0 mg/kg/injection, schedule: Q04DX002 (ip), vehicle: saline with Tween-80 98 % of control
